Reference: US6486161B1, “Use of rifamycin derivative for treating mastitis in a domestic animal” (priority 2000, dated 2002)
Converted amounts (≈) assume the structure as drawn. Where two headings read alike, the source gives them in different places.

How the values were obtained:
[1] = test system: Staphylococcus aureus 9203; assay: S. aureus intracellular killing assay in bovine PMN; type: cell-based; details: overnight incubation (18 to 21 hours)
Procedure: The therapeutic effect of the rifamycin derivative (1) was determined by S. aureus intracellular killing assay in bovine polymorphonuclear neutrophil (PMN).
The procedure for PMN isolation was as described in Carlton et al. (Proc. Soc. Exp. Biol. Med. 142: 853-858 (1973)).
Bovine blood collected by venipuncture in 50-ml syringes containing 1.5% EDTA (pH 6.8) was centrifuged at 1,000×g for 25 min. The plasma-buffer layer and the top few millileters were discarded. The packed erythrocyte fraction was pooled in 0.8% NaCl-phosphate buffer (pH 6.8) and 10 ml was placed in 20 ml of sterile water for 40 seconds to lyse the erythrocytes. Immediately thereafter, 10 ml of a 2.7% NaCl-phosphate buffer solution was added to restore isotonicity. The leukocytes, consisting of ≦84% PMNs, were washed twice and suspended in HBSS. PMNs were adjusted to a final concentration of 10^7 cells per ml.
The intracellular killing assay was carried out as described in Sanchez et al. (Antimicrobial Agents and Chemotherapy 29(4): 634-638 (1986)).
Bovine blood PMNs and bacteria (1:1) were suspended in HBSS containing 10% heterologous bovine serum. The mixture was incubated for 90 minutes at 37° C. in Erlenmeyer flasks with rotational mixing at 110 rpm. Lysostaphin (5 μg/ml) was added to the mixture for the final 15 minutes of incubation. The infected PMNs were washed 3 times by low-speed centrifugation and suspended in HBSS. Cells were pipetted (1 ml) into each well of a six-well cluster dish (Bellco Glass, Inc., Vineland, N.J.) at 5×10^6 PMNs per well. PMNs were allowed to attach and form a monolayer for 10 minutes at 37° C. The supernatant fluid with unattached cells was discarded, and 2 ml of fresh HBSS was added to each well. The rifamycin derivatives to be tested were then added to the wells (one six-well plate per drug). These derivatives were dissolved in dimethylsulfoxide, and then diluted in HBSS to final solvent concentrations of 0.01% (vol/vol) or less.
After overnight incubation (18 to 21 hours) at 37° C. with 1% CO2, lysostaphin (5 μg/ml) was added to each well for 15 min (at 37° C.) to kill extracellular bacteria. The monolayers were washed with HBSS, and the cells were lysed by addition of 1 ml of water to each well. The number of viable bacteria was then estimated by plate counts on brain heart infusion agar. […] The results are shown in Table 2, wherein R is the alkyl group in the rifamycin derivative (1).

Oral toxicity in mice = type: in vivo; details: orally administered to mice, 1,000 mg/kg
[2] = test system: Staphylococcus aureus 6097; assay: Dose titration in the mouse mastitis model (S. aureus-induced murine mastitis); type: in vivo; details: mice, read 6 days after infection; for ED (mg/kg/d) Mastitis: 50% of mice without mastitis; for ED (mg/kg/d) Culture: 50% of mice with no bacteria cultured from gland
[3] = test system: Staphylococcus aureus 9203; assay: MIC against the strain of the intracellular killing assay; type: cell-based
[4] = test system: S. aureus 30857, a rifampin-resistant isolate; assay: MIC, microbroth dilution, strain 30857; type: cell-based, Staphylococcus aureus; details: strain 30857
Procedure: (§1) Four S. aureus strains were used: S. aureus 30857, a rifampin-resistant isolate: S. aureus 6097, a strain used in the mouse mastitis test and originally from a case of gangrenous bovine mastitis; S. aureus B83-1, derived from the Newbould 305 strain; and S. aureus ATCC 29213, the in vitro control stain recommended by NCCLS.
(§2) All S. aureus strains were maintained on 3 mm glass beads immersed in trypticase soy broth (BBL Microbiology Systems, Cockeysville, Md.) with 10% glycerol and held at −70° C. until revived. Prior to testing, the strains were subcultured on tryptose blood agar base (Difco, Detroit, Mich.) supplemented with 5% sheep blood for 24 hours at 35° C.
(§3) These compounds were dissolved in 95% ethanol, a solution which was then diluted to 10% ethanol with sterile distilled water. Further dilutions were conducted in water.
(§4) MIC (Minimum Inhibitory Concentration) determinations were performed using the microbroth dilution method. (National Committee for Clinical Laboratory Standards, 1990 Approved Standard […]. Methods for dilution antimicrobial susceptibility tests for bacteria that grow aerobically, 3rd edition. National Committee for Clinical Laboratory Standards, Villanova, Pa.) The results are shown in Table 3, wherein R is the alkyl group R in the rifamycin derivative (1).

S. aureus 6097 [5] = assay: MIC, microbroth dilution, strain 6097; type: cell-based, Staphylococcus aureus
Procedure: as §1, §2, §3, §4

S. aureus B83-1 [6] = assay: MIC, microbroth dilution, strain B83-1; type: cell-based, Staphylococcus aureus
Procedure: as §1, §2, §3, §4

S. aureus ATCC 29213 [7] = assay: MIC, microbroth dilution, strain ATCC 29213; type: cell-based, Staphylococcus aureus
Procedure: as §1, §2, §3, §4

[8] = test system: S. aureus 30857, a rifampin-resistant isolate; type: cell-based, Staphylococcus aureus; details: strain 30857
Procedure: (§5) The mutation frequency for development of resistance to the rifamycin derivative (1) as compared to rifampin was determined with selected Staphylococcus aureus strains.
as §1, §2, §3
(§6) The mutation frequency for development of resistance to the compounds tested was determined by the following method. A single colony of each strain was removed from the surface of a blood agar plate with a cotton swab, suspended in 5 ml of Mueller-Hinton broth (BBL), and streaked on the entire surface of five Mueller-Hinton agar plates. The plates were incubated overnight under aerobic conditions at 35° C., growth was removed from the agar using a sterile cotton swab, and the bacteria were suspended in 10 ml physiological saline. This bacterial suspension was the inoculum for the mutation frequency determinations. Standard plate counts were performed on the inoculum by performing serial dilutions and plating a 0.1 ml aliquot on the surface of ten Mueller-Hinton agar plates at each concentration. The plates were incubated for 18-24 hours at 35° C. under aerobic conditions and colony counts performed. Mean bacterial counts were calculated for the inoculum with each strain.
(§7) A 0.1 ml aliquot of the inoculum was then used to inoculate the entire surface of ten plates each containing 1, 10, and 100 μg/ml of the test antimicrobial agents. The plates were incubated for 18-24 hours at 35° C. under aerobic conditions and colony counts performed. Mean bacterial counts were calculated for each antimicrobial concentration and the mutation frequency calculated by dividing the number of colonies which grew on the drug containing media by the inoculum size.

S. aureus 6097 [9] = assay: Mutation frequency for resistance, strain 6097; type: cell-based, Staphylococcus aureus
Procedure: as §5, §1, §2, §3, §6, §7

S. aureus B83-1 [10] = assay: Mutation frequency for resistance, strain B83-1; type: cell-based, Staphylococcus aureus
Procedure: as §5, §1, §2, §3, §6, §7

S. aureus ATCC 29213 [11] = assay: Mutation frequency for resistance, strain ATCC 29213; type: cell-based, Staphylococcus aureus
Procedure: as §5, §1, §2, §3, §6, §7

[12] = route IMM (intramammary), 1 hour after infection

| SMILES | % reduction ([1]; 100X MIC) | CFU/ml ISD (×10^3) ([1]; 100X MIC) | toxicity (Oral toxicity in mice) | ED (mg/kg/d) Mastitis [2, 12] | ED (mg/kg/d) Culture ([2]; route IMM (intramammary)) | ED (mg/kg/d) Culture ([2]; route SC (subcutaneous)) | ED (mg/kg/d) Mastitis ([2]; route SC (subcutaneous)) | % reduction ([1]; 1X MIC) | CFU/ml ISD (×10^3) ([1]; 1X MIC) | MIC [3] | also measured |
| --- | --- | --- | --- | --- | --- | --- | --- | --- | --- | --- | --- |
| Cc1onc(-c2ccccc2Cl)c1C(=O)N[C@@H]1C(=O)N2[C@@H]1SC(C)(C)[C@@H]2C(=O)O [Cloxacillin, reference compound] | 0.0% | 5.9 ± 1.9 CFU/ml (×10^3) | – | – | – | – | – | – | – | – | – |
| COC1/C=C/OC2(C)Oc3c(C)c(O)c4c(=O)c(c5oc6cc(N7CCN(C8CC8)CC7)cc(O)c6nc-5c4c3C2=O)NC(=O)/C(C)=C\C=C\C(C)C(O)C(C)C(O)C(C)C(OC(C)=O)C1C (stereo not shown) [R = cyclopropyl] | – | – | did not show any toxicity | – | – | – | – | – | – | – | – |
| CCN1CCN(c2cc(O)c3nc4c5c6c7c(C)c(O)c5c(=O)c(c-4oc3c2)NC(=O)/C(C)=C\C=C\C(C)C(O)C(C)C(O)C(C)C(OC(C)=O)C(C)C(OC)/C=C/OC(C)(O7)C6=O)CC1 (stereo not shown) [R = ethyl] | 100% | 0.0 CFU/ml (×10^3) | did not show any toxicity | 0.3 mg/kg/day | 0.4 mg/kg/day | 1.5 mg/kg/day | 0.4 mg/kg/day | 97.0% | 0.09 ± 0.04 CFU/ml (×10^3) | ≦0.03 μg/ml | – |
| COC1/C=C/OC2(C)Oc3c(C)c(O)c4c(=O)c(c5oc6cc(N7CCN(CC(C)C)CC7)cc(O)c6nc-5c4c3C2=O)NC(=O)/C(C)=C\C=C\C(C)C(O)C(C)C(O)C(C)C(OC(C)=O)C1C (stereo not shown) [R = isobutyl] | 100% | 0.0 CFU/ml (×10^3) | did not show any toxicity | 0.3 mg/kg/day | 0.3 mg/kg/day | 3.5 mg/kg/day | 3.5 mg/kg/day | 95.0% | 0.15 ± 0.06 CFU/ml (×10^3) | ≦0.03 μg/ml | MIC [4]: >4000 ng/mL; MIC (S. aureus 6097 [5]): 0.98 ng/mL (≈ 1.04 nM); MIC (S. aureus B83-1 [6]): 1.9 ng/mL (≈ 2.02 nM); MIC (S. aureus ATCC 29213 [7]): 1.9 ng/mL (≈ 2.02 nM); Mutation frequency ([8]; 1 μg/ml): >1.0 × 10^−7; Mutation frequency ([8]; 10 μg/ml): >1.0 × 10^−7; Mutation frequency ([8]; 100 μg/ml): >1.0 × 10^−7; Mutation frequency (S. aureus 6097 [9]; 1 μg/ml): 9.5 × 10^−8; Mutation frequency (S. aureus 6097 [9]; 10 μg/ml): 8.9 × 10^−8; Mutation frequency (S. aureus 6097 [9]; 100 μg/ml): 9.9 × 10^−8; Mutation frequency (S. aureus B83-1 [10]; 1 μg/ml): 5.0 × 10^−8; Mutation frequency (S. aureus B83-1 [10]; 10 μg/ml): 5.2 × 10^−8; Mutation frequency (S. aureus B83-1 [10]; 100 μg/ml): 4.7 × 10^−8; Mutation frequency (S. aureus ATCC 29213 [11]; 1 μg/ml): 3.0 × 10^−8; Mutation frequency (S. aureus ATCC 29213 [11]; 10 μg/ml): 3.7 × 10^−8; Mutation frequency (S. aureus ATCC 29213 [11]; 100 μg/ml): 3.5 × 10^−8 |
| COC1/C=C/OC2(C)Oc3c(C)c(O)c4c(=O)c(c5oc6cc(N7CCN(C(C)C)CC7)cc(O)c6nc-5c4c3C2=O)NC(=O)/C(C)=C\C=C\C(C)C(O)C(C)C(O)C(C)C(OC(C)=O)C1C (stereo not shown) [R = isopropyl] | 100% | 0.0 CFU/ml (×10^3) | did not show any toxicity | 0.2 mg/kg/day | 0.2 mg/kg/day | 0.6 mg/kg/day | 0.4 mg/kg/day | 100% | 0.0 CFU/ml (×10^3) | ≦0.03 μg/ml | – |
